From ChEMBL document CHEMBL1129473, “Slow-binding inhibition of gamma-aminobutyric acid aminotransferase by hydrazine analogues” (J Med Chem, 1996)
Counter-ions that a name gives are not always drawn.

Experiments:
[1] = target: T1, 4-aminobutyrate aminotransferase, mitochondrial (Sus scrofa, UniProt P80147); assay: The Dissociation Constant for Gamma-amino-N-butyrate transaminase
[2] = target: 4-aminobutyrate aminotransferase, mitochondrial (Sus scrofa) (UniProt P80147); assay: The Reactivation Kinetic Constant for Gamma-amino-N-butyrate transaminase
[3] = target: T1, 4-aminobutyrate aminotransferase, mitochondrial; assay: Inhibitory activity against Gamma-amino-N-butyrate transaminase
[4] = target: 4-aminobutyrate aminotransferase, mitochondrial (Sus scrofa) (UniProt P80147); assay: Dissociation constant of the Gamma-amino-N-butyrate transaminase
[5] = target: 4-aminobutyrate aminotransferase, mitochondrial (Sus scrofa) (UniProt P80147); assay: Inhibitory rate constant against Gamma-amino-N-butyrate transaminase

Sequence of 4-aminobutyrate aminotransferase, mitochondrial (Sus scrofa) (P80147 whole entry): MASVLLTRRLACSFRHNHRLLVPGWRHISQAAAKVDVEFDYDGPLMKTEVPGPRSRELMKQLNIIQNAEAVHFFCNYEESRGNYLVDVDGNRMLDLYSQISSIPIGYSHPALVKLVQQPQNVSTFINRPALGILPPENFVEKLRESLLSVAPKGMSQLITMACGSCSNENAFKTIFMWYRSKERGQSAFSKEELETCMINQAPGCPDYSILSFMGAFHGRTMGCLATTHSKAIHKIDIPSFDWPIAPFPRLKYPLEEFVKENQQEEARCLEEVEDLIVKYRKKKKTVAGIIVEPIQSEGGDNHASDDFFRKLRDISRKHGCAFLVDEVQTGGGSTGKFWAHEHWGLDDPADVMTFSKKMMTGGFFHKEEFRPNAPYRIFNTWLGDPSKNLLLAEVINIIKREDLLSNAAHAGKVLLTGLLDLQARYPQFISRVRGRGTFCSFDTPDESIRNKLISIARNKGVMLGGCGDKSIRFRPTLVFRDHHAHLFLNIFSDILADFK
T1 sequence (P80147 whole entry): as above

NNCCC(=O)O
Kd [1]: < 20 nM
Kreact [2]: 0.0069 min⁻¹

NNCc1cccc(O)c1 [3-HYDROXYBENZYLHYDRAZINE DIHYDROCHLORIDE]
Ki [3]: 300 nM
K4 [4]: 0.005 min⁻¹
Kd [1]: 460 nM
K3 [5]: 330 M⁻¹ s⁻¹
Kreact [2]: 0.02 min⁻¹

CNN [METHYLHYDRAZINE]
Ki [3]: 2200 nM
K4 [4]: 0.0046 min⁻¹
Kd [1]: 2800 nM
K3 [5]: 34.7 M⁻¹ s⁻¹
Kreact [2]: 4 min⁻¹
